The results in this text go back to a melting point compilation (Tetko et al.; mined from patent text by program, amines drawn as free bases though some values may be those of a salt).

What is called melting point is the temperature of the solid-liquid transition.

Some results are limits rather than exact numbers.

In turn, `CCCn1c(=O)nc(SC)c2c1ncn2C` came in with a melting point of 225 to 226 °C.

As for `CC(C)Cc1nc2ccc(Br)cc2c(-c2ccccc2)c1CN1C(=O)c2ccccc2C1=O`, the melting point is 164 to 165 °C.

Consider `CC(=O)CC(=S)SCc1cn(C(c2ccccc2)(c2ccccc2)c2ccccc2)nn1`, for which the melting point lay in the range of 172 to 173 °C.

`Oc1ncnc2[nH]c(-c3ccncc3)cc12` gave a melting point of more than 260 °C.

Compound `Cc1ccc(F)cc1C(C)(C)CC(O)(Cn1ccc(=O)c2sccc21)C(F)(F)F` (centres undefined) displayed a melting point of 175 to 176 °C.

In turn, `CN(C)CCON=C1c2ccccc2C2CC2c2ccccc21` (centres undefined) yielded a melting point of 69 to 70 °C.

`O=C(NCCCNS(=O)(=O)c1ccc(Oc2ccccc2)cc1)P(=O)(O)O` yielded a melting point of 165 to 168 °C.

`O=S1(=O)Cc2cc(Cl)c(Cl)cc2C(c2ccc(F)cc2)=NN1` showed a melting point of 196 to 200 °C.

Regarding `CN(C(=O)OCc1ccccc1)[C@@H](CC(N)=O)C(=O)N[C@@H](Cc1ccccc1)[C@H](O)C(=O)N1CCC[C@H]1C(=O)NC(C)(C)C`, the melting point was 100 to 103 °C.

`COc1cc(Nc2nc(-c3ccccc3)cs2)ccc1-c1cnco1` displayed a melting point of 193 to 195 °C.

For `CCCc1sc(C#N)c2c1C(=O)CC(C)(C)C2`, the melting point was 38 to 40 °C.

`CSC(=NC(=O)OCc1ccccc1)NNC(=O)NC(=O)OCc1ccccc1` came in with a melting point of 165 to 166 °C.

Turning to `Cc1nnc2cc(-c3ccccc3Cl)c3cc(Cl)ccc3n12`, the melting point is 257 to 259 °C.

`Nc1ccc2cnc(Nc3ccc(F)cc3)nc2n1` had a melting point of 245 to 248 °C.

For `O=[N+]([O-])c1ccc2c(ccn2CCCCl)c1`, the melting point was 74 to 76 °C.

Regarding `COc1cc2c(cc1-c1cnccn1)-c1c(-c3cccs3)c3c(n1CC2)C(=O)N(C(C)(C)C)CCCOC3`, the melting point fell in the range of 267 to 268 °C.

Turning to `O=C(CN1CCC(Cc2ccc(F)cc2)CC1)Nc1ccc([N+](=O)[O-])cc1`, the melting point lay within 120 to 123 °C.

As to `CCOC(=O)C1=C(C)Nc2c(C(=O)OCC)ncn2C1c1cccc([N+](=O)[O-])c1` (centres undefined), the melting point was 160 to 162 °C.

Compound `N#Cc1c(N)nc2ccc([N+](=O)[O-])cc2c1NCc1ccccc1` came in with a melting point of 280 to 283 °C.

Take `Nc1ccc(-c2ncccn2)cc1`: the melting point fell in the range of 236 to 238 °C.

Consider `N=C(N)c1ccc(C(=O)N[C@@H](Cc2ccccc2)C(=O)c2ccc(OCC(=O)O)cc2)cc1`, for which the melting point was more than 200 °C.

Compound `Cc1cc(-c2nnn(C)n2)cc(C)c1OCCCn1cncn1` returned a melting point of 76 to 78 °C.

`C[C@@H](O)C(=O)OC(C)(C)C` returned a melting point of 41 to 42 °C.

Compound `O=C(O)CCC(CC1(C(=O)NC2CCC(C(=O)OCc3ccccc3)CC2)CCCC1)C(=O)OCc1ccccc1` (centres undefined) gave a melting point of 103 to 104 °C.

Consider `O=C(Nc1ccc(Cl)cn1)c1ccc(OC(F)F)c2oc3ccccc3c12`, for which the melting point lay in the range of 155 to 157 °C.

`CSc1nc2ccc(Cl)cc2cc1C=O` showed a melting point of 154 to 155 °C.

`Cc1cc(Br)cnc1CCCCNc1ncc(Cc2cccnc2)cc1O` came in with a melting point of 164 to 166 °C.

In turn, `CC(=O)Oc1ccc(NC(=O)OC(C)(C)C)cc1C(=O)O` came in with a melting point of 76 to 78 °C.

`CCc1cc2c(s1)-n1nnnc1CN=C2c1ccccc1Cl` had a melting point of 135 to 136 °C.

`CC(C)C(C(=O)O)N1CCCNC1=O` (centres undefined) returned a melting point of 176 to 177 °C.

Consider `CC1(C)CCSc2cccc(O)c21`, for which the melting point stood at 48 °C.

Turning to `CCCC1CCC(c2ccc(-c3cc(F)c(C(F)(F)Oc4cc(F)c(C(F)(F)F)c(F)c4)c(F)c3)c(F)c2)CC1` (centres undefined), the melting point came out at 86 °C.

In turn, `COCCSc1ccccc1S(=O)(=O)NC(=O)Nc1nc(C)nc(OC)n1` registered a melting point of 127 to 128 °C.

As to `CC(=NNC(=O)c1ccc([N+](=O)[O-])cc1)c1ccncc1`, the melting point was determined as 251 °C.

`COc1ccc2c(c1)CN(S(=O)(=O)NC(Cc1cc3c(N)nccc3s1)C(=O)N1CCC(C)CC1)CC2` (centres undefined) gave a melting point of 175 to 176 °C.

`CC(=O)NC(COc1ccccc1)C(=O)O` (centres undefined) had a melting point of 90 to 92 °C.

Consider `CCCc1c(O)ccc2c1OC(C(=O)OC)CC2` (centres undefined), for which the melting point is 51 to 53 °C.

`CC(C)(C)NC(=O)NCc1cccc2c1C(=O)N(C1CCC(=O)NC1=O)C2=O` (centres undefined): the melting point was 186 to 188 °C.

As to `CCCC(=O)c1ccc2c(c1)C(C)C(=S)N2` (centres undefined), the melting point lay in the range of 133 to 136 °C.

As for `O=C(O)c1nc2cc(-n3cccc3)c([N+](=O)[O-])cc2[nH]c1=O`, the melting point was more than 300 °C.

`O=C1NCc2cc(C(O)c3cccnc3)ccc2N1` (centres undefined) registered a melting point of 272 °C.

In turn, `Cc1ccc(C(=O)C(=NN)c2ccc(C)cc2)cc1` gave a melting point of 137 to 140 °C.

The compound `COc1cc(OC)c(-c2cccs2)cc1/C=C/C(=O)c1ccc(S(=O)(=O)NCC(F)(F)F)cc1` displayed a melting point of 167 to 168 °C.

`O=C(CO)c1c[nH]c2cc(OCc3ccccc3)ccc12` registered a melting point of 194 to 195 °C.

The compound `CC(=O)Nc1nc2c(NC(=O)c3ccc4cc(Br)ccc4c3)cccc2s1` registered a melting point of 242 °C.

Take `O=C(O)c1cc(-n2c(-c3ccccc3)cc3c2-c2ccccc2CC3)ccc1O`: the melting point was 215 to 218 °C.

On to `COC(=O)COc1ccc(C(C)=O)c(OCCCBr)c1`, for which the melting point was 67 to 70 °C.

`Cc1cc(-c2ccc(Cl)cc2)nc(-c2ccnc(-c3cccc(S(N)(=O)=O)c3)c2)n1` gave a melting point of 224 °C.

In turn, `Oc1ccc(I)nc1Cl` returned a melting point of 142 to 143 °C.

As to `C#CC1(O)CCC2(C)C(CCC3C4CCC(C(C)=O)C4(C)C=CC32)C1` (centres undefined), the melting point is 147 to 150 °C.

`Cc1ncoc1-c1ccc(C#N)cc1` gave a melting point of 120 to 121 °C.

In turn, `CCCc1nn(C)c(C(N)=O)c1NC(=O)c1cc(S(=O)(=O)N2CCN(C)CC2)ccc1OCC` showed a melting point of 204 to 206 °C.

Turning to `Cc1cccc(C)c1N(C)C(=O)Cl`, the melting point was in the range of 79 to 80 °C.

For `COc1cccc(-c2nc(C(=O)c3ccc(N)c(OC)c3)n3ccccc23)c1`, the melting point came out at 210 °C.

`NC(=O)c1cccc(-c2ccnc3cc(Cc4cccc(C(F)(F)F)c4)sc23)c1` registered a melting point of 191 to 192 °C.

In turn, `CCCCCCCCCCCCS(=O)(=O)N1CCCSC1=C(Cl)[N+](=O)[O-]` returned a melting point of 76 to 77 °C.

On to `O=CO[C@H]1CC[C@H](NC(=O)OCc2ccccc2)C1` (relative stereo), for which the melting point was 45 to 48 °C.

Turning to `COc1ccc2c(CC(=O)O)c(C(=O)c3cc(C)ccn3)[nH]c2c1`, the melting point turned out to be 204 °C.

`O=c1c2cccc3c2n(c(=O)n1CC(O)CO)-c1cc(C(F)(F)F)ccc1S3=O` (centres undefined) came in with a melting point of 224 to 225 °C.

`O=C/C=C/c1ccc(Cl)c(Cl)c1` showed a melting point of 92 to 94 °C.

As to `CC(C)(C)C(=O)CN1C(=O)C(NC(=O)Nc2ccccc2)CN(C2CCCCC2)c2ccccc21` (centres undefined), the melting point lay in the range of 247 to 251 °C.

For the compound `CCn1cc(CN(C(=O)C2CCCc3cc(O)ccc32)c2ccc(C(C)C)cc2)cn1` (centres undefined), the melting point fell in the range of 146 to 147 °C.

Regarding `O=C(Nc1ccc(CN2C(=O)[C@H]3CCC[C@H]3N(C(=O)CN3C(=O)c4ccccc4C3=O)c3ccccc32)cc1)c1ccc(Br)cc1` (relative stereo), the melting point fell in the range of 175 to 180 °C.

As to `COc1cc([N+](=O)[O-])ccc1-c1cncs1`, the melting point was 125 to 128 °C.

Compound `O=c1oc(=O)n(-c2ccccc2)c2ccccc12` returned a melting point of 183 °C.

`CCOC(=O)C(C)(C#N)c1cccc2c(-c3ccc(Cl)cc3)nccc12` (centres undefined): the melting point was in the range of 92 to 93.5 °C.

Consider `Nc1cccc(OCCN2CCCCC2)c1`, for which the melting point was 115 °C.

For `Clc1ccccc1-c1cc[nH]n1`, the melting point was 93 °C.

As for `CC(C)(Cc1ccc(Cl)cc1Cl)C(=O)Cn1cncn1`, the melting point came out at 85 °C.

`CCC(NC(=O)C1CC1)c1ccc(Cl)c2nc3n(c12)CCCN3c1ccc(Cl)cc1Cl` (centres undefined) displayed a melting point of 251 to 253 °C.

With `CCCCN=C(O)c1c(Sc2ccc([N+](=O)[O-])cc2)c(Sc2ccccc2)c(Sc2ccccc2)c(Sc2ccc([N+](=O)[O-])cc2)c1C(=O)O`, the melting point was 175 to 177 °C.

Take `O=C(Nc1cc2cccnc2cc1N1CCCCC1)c1csc2cncnc12`: the melting point is more than 300 °C.

Regarding `CCOc1ccc(-c2ccc3c(c2)C=C(C(=O)OC)CCN3C=O)cc1`, the melting point lay in the range of 133 to 135 °C.

The compound `N#CCCNC(=O)c1cc(F)cc(-c2cccc3cc(Cc4cc(F)cc(Cl)c4)sc23)c1` registered a melting point of 113 to 114 °C.

Regarding `C=C1C(=O)N[C@@H](Cc2ccccc2)C(=O)N1Cc1ccccc1`, the melting point was 124 to 127 °C.

The compound `CCC(=O)c1[nH]c2cc(Cl)ccc2c1N` had a melting point of 144 to 146 °C.

For the compound `CC(C)c1ccc(-c2cc(-c3cccc(C(=O)O)c3)ccn2)cc1`, the melting point fell in the range of 247 to 249 °C.

Consider `CN(C)Cc1c(-c2ccc3sc(=O)n(C)c3c2)nc2ccccn12`, for which the melting point was in the range of 137 to 140 °C.

`COc1ccc(/C(=C/C=C/C(=O)O)C2CCCCC2)cc1` came in with a melting point of 130 to 132 °C.

For `CCOC(=O)c1cn(CC)c2nc(N3CCC(NCC(C)=O)C3)c(F)cc2c1=O` (centres undefined), the melting point lay within 212 to 213 °C.

`Cc1nnc2n1-c1sc(Cl)cc1C(c1c(F)cccc1F)=NC2` returned a melting point of 185 to 187 °C.

`COC(=O)C(C)(C)C(Cc1ccccc1)NCc1ccccc1` (centres undefined) yielded a melting point of 92 to 94 °C.

With `COc1ccccc1OCCN1CCC(Cc2c[nH]c3ccc(F)cc23)CC1`, the melting point is 91 °C.

Turning to `CCCCc1nn(-c2cc(NC(C)=O)ccc2Cl)c(=O)n1Cc1ccc(-c2cc(CCC)ccc2S(=O)(=O)NC(C)(C)C)cc1F`, the melting point was 125 to 128 °C.

Compound `CC=CC(=O)Nc1n[nH]c2cc(C(F)(F)F)ccc12` returned a melting point of 208 °C.

Regarding `COC(=O)c1nc(-c2ccc(O)nc2)cc(N)c1Cl`, the melting point was in the range of 251 to 252 °C.

`O=C(O)c1ccc2cnc3ccccc3c2c1` returned a melting point of 155 °C.

In turn, `CC(=O)OC1CSC(Oc2ccccc2-c2ccno2)C(OC(C)=O)C1OC(C)=O` (centres undefined) displayed a melting point of 75 °C.

Take `C#CCOc1c(CO)ccc2ccccc12`: the melting point fell in the range of 65 to 68 °C.
